Like-named read-outs stand apart in the source and are kept apart here.
How the values were obtained:
[1] = target: T1, BRD4 (Homo sapiens, UniProt O60885); assay: Protein degradation activity, Western blotting of BRD4 in MCF-7 cells; format: cell-based
T1 construct: endogenous in cells; host or cells: MCF-7
Experimental: Cell treatment: MCF-7 cells in the logarithmic growth phase were taken for the experiment. Cells were inoculated in six-well plates at a density of 5.0×10^5 cells/per well and incubated at 37° C. for 24 hours. […]
Whole cell protein extraction: After completion of drug treatment, the culture medium was discarded, and the cells were washed 3 times with pre-cooled PBS. Cells were scraped off using a cell scraper, and the resulting solution was carefully aspirated and centrifuged at 300 g for 5 min at 4° C. to obtain cells, which were washed with PBS, resuspended, and centrifuged under the same conditions.
Cell lysis: Cells were washed with pre-cooled PBS and lysed in pre-cooled lysis buffer (containing 1% protease and phosphatase inhibitor) for 30 min, and cells were vigorously vortexed several times during lysis. After lysis was completed, the cells were centrifuged at 11,000 g for 15 min at 4° C., and the supernatant was collected as whole cell protein.
Protein denaturation: protein concentration was measured by Bradford assay. Proteins were diluted using 4× Protein Sampling Buffer. Subsequently, the proteins were denatured by heating in a metal bath at 100° C. for 15 min.
Protein Immunoblotting Assay (Western Blotting, WB) was Performed to Quantify BRD4 Protein:
1) Protein electrophoresis: proteins were separated in 4-12% or 4-20% Bis-Tris SDS-PAGE gels. The appropriate volume of the above cell whole protein extract was added to the lanes of the above SDS-PAGE gel. Turn on the power and electrophoresis at 120 V for 15 minutes, then adjust the voltage to 180 V and continue electrophoresis until the loading buffer reaches the lowest end of the gel.
(2) Membrane transfer: After electrophoresis, remove the gel, cut a PVDF membrane […] of the appropriate size and activate the membrane with anhydrous methanol, and install the membrane transfer device in the following order from the negative pole to the positive pole: sponge cushion, gel, PVDF membrane, sponge cushion. After installing the membrane transfer device, place it in the corresponding membrane transfer tank, check the liquid level of the solution required for membrane transfer, turn on the power, and complete the membrane transfer after 3 transfer cycles.
3) Blocking: Place the membrane in QuickBlock™ Western Blocking Buffer and shake it for 20 minutes at room temperature.
4) Primary antibody incubation: After the blocking, discard the blocking solution, add the primary antibody diluted to the appropriate concentration, and gently shake the membrane overnight at 4° C. After completing the incubation, wash the membrane 4 times with 1×TBST for 5 min/time.
(5) Secondary antibody incubation: Add secondary antibody diluted to the appropriate concentration and gently shake the PVDF membrane for 1 hour at room temperature. After incubation, the membrane was washed 4 times with 1×TBST for 5 min/time.
6) Developing: Prepare the ECL developing solution before developing. Lay the PVDF membrane flat on a clean plastic wrap, add the developer solution to the membrane, and let it stand for 1 minute away from light. Subsequently, the PVDF membrane was imaged on a gel system.

[2] = tested on: MCF-7 cell line; assay: In vivo anti-tumor activity, MCF-7 tumor model; set-up: species or system BALB/c nude mice; settings: 10 mg/kg subcutaneous injection
Experimental: To investigate the in vivo activation and antitumor activity of the PROTAC compound AS2 and X-ray-responsive PROTAC compound A1, we performed in vivo antitumor activity studies. The MCF-7 cell line was selected, and experiments were performed in BALB/c nude mice. Experimental animals: BALB/c nude mice (female; 6-8 weeks old) were all purchased from Beijing Vital River Laboratory Animal Technology Co., Ltd and housed in pathogen-free conditions with standard temperature and humidity at the Laboratory Animal Resources Center of Tsinghua University. All animal experiments were approved by the Animal Ethics Committee of Tsinghua University. Tumor model establishment: MCF-7 cells in logarithmic growth phase were taken, and 0.25% trypsin was added to digest the cells after washing the cells for 3 times with pre-cooled PBS buffer. The digested cells were centrifuged at 1000 rpm/min for 5 min, the precipitate was discarded, and the cells were resuspended with pre-cooled PBS and carefully blown to make a single-cell solution. After the cells were counted by a counter, the cell density was adjusted to 1×10^7 cells/mL, and 10 mL was taken into a centrifuge tube and stored on ice. Before inoculation of cancer cells, nude mice were gently wiped under the skin of the right axilla with a paper towel sprayed with 75% alcohol. A 1 mL disposable syringe was used to aspirate 200 μL of cell suspension, and the air in the needle was removed, and a single subcutaneous injection was carried out by puncturing about 1 cm forward from the needle inlet site. The needle was withdrawn slowly to avoid fluid leakage. Observe the tumor growth status daily. Drug administration: When the tumor volume reached 120 mm^3, the tumor-bearing mice were randomly grouped. Six groups were set up, namely PBS, PROTAC drug AS2, PROTAC prodrug A1, PBS+X-ray irradiation, PROTAC drug AS2+X-ray irradiation, and PROTAC prodrug A1+X-ray irradiation. Each drug was dispersed in the following solution: 1.25% DMSO+20% PEG+5% Tween 80+73.75% dd H2O; administered dose: 10 mg/kg; subcutaneous injection. X-ray irradiation was performed 3 hours after drug injection. The irradiation dose was 5 Gy. Tumor size and body weight were monitored every other day. Tumor volume was calculated using the formula: tumor volume=length×width^2/2. After 16 days of monitoring, mice in each group were euthanized, and tumors and major organs were collected.

[3] = tested on: MCF-7 cells; assay: In vitro anti-tumor effect, CellTiter 96 viability assay; format: cell-based; settings: Homo sapiens, MCF7, light or radiation study
Experimental: Experimental Procedure: MCF-7 cells in the logarithmic growth phase were used for the experiment. The cells were seeded at 5000 cells per well in 96-well plates and incubated for 24 hours at 37° C. The cells were treated with Example compounds A1-D3 for 3 h. Subsequently, the irradiated group was irradiated with 10-30 Gy of X-rays, and the cells were continued to be incubated until 72 h after completion of irradiation. At the end of drug treatment, 20 μL of CellTiter 96° solution was added to each well. The well plates were incubated in an incubator for 2-4 hours, and then the absorbance was measured using a plate reader. Data were analyzed with GraphPad Prism software to obtain the IC50 values of each test compound.

[4] = tested on: MCF-7 cells; assay: Annexin V/PI double staining for apoptosis detection; format: cell-based; settings: FIG. 6
Description: The surface of normal cells consists of lipids distributed asymmetrically on the inner and outer leaflets of the plasma membrane. One of them, phosphatidylserine (PS), is normally distributed only on the inner leaflet of the plasma membrane, and is therefore exposed only to the cytoplasm. However, when cells undergo apoptosis, PS is exposed on the outer leaflets of the plasma membrane. Annexin V is a phospholipid-binding protein capable of binding to PS. Therefore, fluorescently labeled Annexin V can be used to detect PS exposed to the outer leaflets of early apoptotic cells. By co-staining with propidium iodide (PI), Annexin V-PI can distinguish normal living cells, early apoptotic cells, and late apoptotic cells. Cell treatment: MCF-7 cells in the logarithmic growth phase were taken for the experiment. Cells were inoculated in six-well plates at a density of 5.0×10^5 cells/per well and incubated at 37° C. for 24 hours. Cells were treated with Example PROTAC drug AS2 and PROTAC prodrug A1 for 3 h, followed by X-ray irradiation, and cells continued to be cultured until 48 h after completion of irradiation. Cell collection: Collect the culture medium in a 1.5 mL centrifuge tube for spare. […] After incubation for 15 min at room temperature away from light, fluorescence detection was carried out by flow cytometry.

BRD4 degradation ([1]; co-treated with X-ray irradiation, 10 nM prodrug, FIG. 5): > 50%
degradation activity on BRD4 with X-ray irradiation ([1]; co-treated with X-ray irradiation, FIG. 5): significantly degraded
degradation activity on BRD4 prior to activation ([1]; no irradiation, 0-300 nM, FIG. 4): failed to degrade BRD4
IC50 ([3]; compound 3 h, then X-rays 10 Gy or 30 Gy, 72 h after irradiation, read-out: Irradiation with 10 Gy or 30 Gy IC50): 122 nM
IC50 ([3]; no irradiation, 72 h incubation, read-out: Radiation-free IC50): 1020 nM
SMILES: Cc1ncsc1-c1ccc([C@H](C)NC(=O)[C@@H]2C[C@@H](OC(=O)OCc3c(F)c(F)c(N=[N+]=[N-])c(F)c3F)CN2C(=O)[C@H](NC(=O)COCCOCCOCCNC(=O)C[C@@H]2N=C(c3ccc(Cl)cc3)c3c(sc(C)c3C)-n3c(C)nnc32)C(C)(C)C)cc1 [Compound A1]
tumor growth (tumor volume) ([2]; X-ray 5 Gy 3 hours after drug injection): enhance the efficacy of radiation therapy
tumor growth (tumor volume) ([2]; no irradiation, compared with PBS group): failed to inhibit the tumor growth
ability to induce apoptosis ([4]; X-rays and compound together, 48 h after irradiation): significantly elevated early apoptotic and late apoptotic cells
ability to induce apoptosis ([4]; without X-ray irradiation): comparable to that of control DMSO
